Measurements as given in patent US20170327827A1, “ADIPOCYTE-SPECIFIC CONSTRUCTS AND METHODS FOR INHIBITING PLATELET-TYPE 12 LIPOXYGENASE EXPRESSION” (The Medical Research, Infrastructure, and Health Services …, priority 2006, published 2017).
“Also recorded” adds a separate entry of the source.

Columns and labels:
Assay type in all cases: cell-based, murine
3T3-L1 cells [1] = test: DNA fragmentation (Roche Cell Death Detection ELISA) in stable knockout populations and clones; conditions: 10^−7M
Experimental: DNA Fragmentation (ELISA method): Apoptopic cells show hallmark random DNA fragmentation between nucleosomes. The “Cell Death Detection ELISA” format by Roche (Mannheim, Germany) was used in the following examples. Culture treatments and controls were performed for the tested period and after counting the cells and washing them twice with PBS, 250,000 cells/aliquot were prepared and stored dry at −180° C. until assay. Multiple replicates were usually prepared for assay together on the same day in the same kit. Assay was carried out exactly as described by the manufacturer on 250,000 cells/aliquot.
One hallmark of apoptosis is DNA fragmentation. In the current studies the Roche (Mannheim, Germany) version of this assay was used in the format of an ELISA assay, which measures released intact DNA/Histone-nucleosomes. The results are presented as antisense knockout levels normalized to parallel control values. In the experiment shown in FIGS. 10A-10B, populations of 3T3-L1 cells with either of the two 12Lo antisense knockout plasmids (“mp”-pCMV5′mp12Lo(Pst1)-A; “600a”-pcDNAh60012LoA) versus controls (“Con”) were directly compared: cell death versus relative DNA fragmentation.
To further validate the mechanism of cell death the Roche Cell Death kit was applied as a measure of DNA fragmentation, which is a classic apoptopic hallmark. […]

3T3-L1 stable cell lines = test: Necrosis by lactate dehydrogenase (LDH) release
Experimental: Lactate Dehydrogenase Release (LDH): Necrotic cells release their cytoplasmic contents into the surrounding medium. In recent years the measurement of one such stable enzyme, LDH, has become a standard laboratory marker of necrosis (Goeptar et al., 1994; Moran et al., 1996). Cell cultures and treatments tested for LDH release had their supernatants collected, centrifuged (1,100×g, 5 minutes; to remove particulate debris) and supernatants tested automatically in a centralized facility (in-house) by method of Moran and Schnellmann (Moran et al., 1996), 1996. In each study a positive control for LDH release was a 1/5000 dilution of triton X100 directly into the cell culture, for the period of the bioassay. Negative control was medium without cells.
Cell death can occur as a result of different processes: apoptosis, which is a very programmed process, as well as other less programmed mechanisms such as necrosis. […] In recent years, investigators have been measuring the release of lactate dehydrogenase (LDH) from cells as a measure of cellular necrosis. The contribution of necrosis in the cell death of the 12Lo reduced expressing clones was thus examined by comparing LDH release from control and pCMV600a 12Lo antisense knockout stable preadipocyte cell lines grown in the presence or absence of 12-HETE. In FIG. 15, typical data of such a study is presented.

3T3-L1 cells [2] = test: Basal cell death of stable 12Lo antisense knockout populations and clones (trypan blue)
3T3-L1 cells [3] = test: G418 selection kill level; conditions: 600 μg/ml G418 over two weeks
Experimental: 600 μg/ml is enough G418 to kill 100% 3T3-L1 cells over 2 weeks. Thus the levels used clearly distinguish between cells that incorporated G418 resistance (within the expression plasmid used) into their genomes and cells lacking this marker. A few passages after G418 release stable populations should recover and fill the plate.
The Fugene6 protocol was then used again for preparation of 12Lo antisense knockout and control clones together with the G418 selection marker as G418 resistance was built in to the pCDNA3.1 plasmid (see FIGS. 2A-2D). It was herein determined that 600 μg/ml G418 killed 100% of 3T3-L1 cells over two weeks. So on transfection of cells and selection with 650 μg/ml G418 over three weeks only those cells expressing strong […] resistance would survive and grow. Following three weeks of selection G418 release was gradual over the next 1-2 weeks.

Q: Which “effect of 12-HETE on DNA fragmentation levels” value (3T3-L1 cells [1]; each of the pCMV600a clonal stable lines) does the source give for `CCCCC/C=C\C[C@@H](O)/C=C/C=C\C/C=C\CCCC(=O)O` [12-HETE, 12 hydroxyeicosatetraenoic acid] here?
A: Its value is “reduced the DNA fragmentation levels”.

Q: And the “DNA fragmentation level on supplemented 12-HETE” value (3T3-L1 cells [1]; pCMV600a clone 10)?
A: Its value is “nearly “normal” (or control) levels”.

Q: And the “effect of 12-HETE on cell necrosis (LDH release)” value (3T3-L1 stable cell lines)?
A: The value was “no effect”.

Q: And the “effect of added 12-HETE on cell death of 12Lo antisense knockout clones” value (3T3-L1 cells [2]; 12-HETE 10^−7 M)?
A: Its value is “much less cell death; also recorded: encouraged cell survival”.

Q: And the “effect of 12-HETE on cell survival of control clone” value (3T3-L1 cells [2]; pCMVCAT stably transfected 3T3-L1 cells, 10^−7M)?
A: The value was “no effect”.

Q: For `CN[C@@H]1[C@@H](O)[C@@H](O[C@@H]2[C@@H](O)[C@H](O[C@H]3O[C@H]([C@@H](C)O)[C@@H](O)[C@H](O)[C@H]3N)[C@@H](N)C[C@H]2N)OC[C@]1(C)O` [G418], which 3T3-L1 cells killed (3T3-L1 cells [3]) is on record?
A: Its 3T3-L1 cells killed is 100%.
